From patent US20240101510A1, “APYRASE INHIBITORS” (Texas Crop Science, priority 2022, published 2024)

Tests used:
[1] = test system: Botrytis cinerea on tomatoes; experiment: Greenhouse crop test in combination with commercial fungicide; format: in vivo; conditions: for control of Botrytis by Amistar in combination with test compound: Amistar 0.03 L/ha; for activity against Botrytis of Balaya in combination with test compound: Balaya 0.0015 L/ha, compared to Balaya alone; for control of Botrytis by Proline in combination with test compound: Proline 0.00075 L/ha, compared to Proline alone
Method: (§1) Method 3: Greenhouse Crop Tests
(§2) In this method, exemplary compounds were evaluated for their ability to control Zymoseptoria tritici on wheat, Botrytis cinerea on tomatoes, Asian Soya Rust (Phakopsora pachyrhizi) on soybean, and Brown Rust (Puccinia recondita) on wheat, in a controlled greenhouse environment in combination with one of four fungicides, Amistar, Imtrex, Proline or Balaya. In these studies, soybean cultivar Siverka, tomato (Money maker) and wheat plants (JB Diego) were used. Seeds were sown in 9 cm diameter pots to a depth of 1 to 2 cm using Petersfield potting compost (75% medium grade peat, 12% screened sterilized loam, 3% medium grade vermiculite, 10% grit (5 mm screened, lime free), 1.5 kg PG mix per m3, lime to pH5.5-6.0 and wetting agent (Vitax Ultrawet 200 ml per m3) and germinated/grown at 23° C. under a 16 h day/8 h night light regime. Plants were treated two to three weeks after sowing when they were at the BBCH 11 growth stage (first pair of true leaves (unifoliate) unfolded. A track sprayer was used to treat the plants with the mixture of commercial fungicide and test compound using a water volume of 200 L/ha. Plants were inoculated with the appropriate fungi (pathogen) 24 hours after treatment. Fungal pathogens used were Botrytis cinerea (Grey mold on tomato plants), Zymoseptoria tritici (Septoria leaf blotch on wheat plants), Puccinia triticina (Brown rust on wheat plants) and Phakopsora pachyrhyzi (Asian soy rust on soybean plants). Four replicates were used for each combination of fungicide, pathogen and test compound. Each plant was evaluated once the disease symptoms were fully expressed between seven to twenty days (depending on the pathogen) for % control of the disease. Appropriate controls were used for all experiments, including an ‘inoculation check’ wherein plants were inoculated with their specific pathogen to assess disease levels. Also, each commercial fungicide was tested on its own as a part of each treatment, this being benchmark against which the experimental compounds were evaluated. […] That is, the present compounds, although not fungicidal by themselves, enhance the activity of fungicides.
(§3) In these studies the fungicide was applied at the following rates

[2] = test system: apyrase; experiment: In vitro apyrase assay (screen for apyrase inhibitors, phosphate release read at 630 nm); format: biochemical; conditions: inhibitor conc at 1 mM; 1 hr at room temperature; rounded average of two assay results
Method: Method 1: In Vitro Apyrase Assay: Apyrase inhibitors useful as enhancers of pesticidal activity are assessed using an in vitro assay. The method of Windsor, Bio Techniques 33:1024-1030 (November 2002) was used as follows: Screen for Apyrase Inhibitors - 96 well plates were used for the assay: (Greiner bio-one: REF-655901-96 well, PS, F-bottom, Clear, Non-binding) Buffers: • Reaction Buffer: 60 mM Hepes; 3 mM MgCl2, 3 mM CaCl2 and 3 mM ATP (pH 6.5) • Development Buffer A: 2% aqueous ammonium molybdate • Development Buffer B: 11% ascorbic acid in 37.5% TCA in water • Stop buffer C: 2% trisodium citrate in 2% acetic acid solution in water • Add 100 μl of reaction buffer to each well. • Add […] (control) or inhibitor/compound or compounds such as […] or orthovanadate to each well. […] A blank cell indicates either <10% observed inhibition or a large difference between repetitions. In certain examples, the lack of observed inhibition is due to a lack of solubility of the compound under assay conditions, rather than a lack of apyrase inhibitory activity. Roux compound 15 inhibited apyrase in this assay at about 60%.

[3] = test system: Zymoseptoria tritici with a reduced susceptibility to strobilurin fungicides; experiment: In vitro assessment of combination activity with fungicides on agar; format: cell-based; conditions: fungicide at a rate just below that giving any control; visual assessment of % control;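 note: scored as inactive or active or highly active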
Method: (§4) Method 2: In Vitro Assessment of Combination Activity
(§5) Selected compounds were assessed in combination with fungicides against a range of commercially important plant pathogenic fungi.
(§6) The test was conducted as follows. A fungicide was applied to a fungal plant pathogen at a rate slightly below that at which it gave any control, in combination with a suitable dose of the test compound. The test compound was recorded as active if control of the pathogen was observed.
(§7) In more detail, the test was conducted as follows. For each combination of fungicide, pathogen and test compound, the following wells were used. Well 1 contained a fungal pathogen growing on agar, and a fungicide at a rate just below that at which it gave any control of the pathogen. Well 2 was the same as Well 1, except that the test compound was also added at Rate 1. Well 3 was the same as Well 2, except that the test compound was added at Rate 2, where Rate 2 was higher than Rate 1. Finally, as a benchmark, Well 4 was the same as Well 1, except that it contained the fungicide at a higher rate, at which it gave partial control of the pathogen. Each of the Wells 1 to 4 were run in duplicate, giving a total of 8 wells for each combination of fungicide, pathogen and test compound. For each well, after a suitable period of incubation, a visual assessment of the % control of the pathogen by the fungicide was made.
(§8) The following fungicides were used in this assay: azoxystrobin, fluxapyroxad, and desthio prothioconazole. The following fungal pathogens were used in this assay. First, a strain of Zymoseptoria tritici with a reduced susceptibility to strobilurin fungicides; second a strain of Zymoseptoria tritici with a reduced susceptibility to SDHI fungicides (i.e., those that inhibit succinate dehydrogenase); and third, Microdochium nivale.

[4] = test system: Microdochium nivale; experiment: as above; format: cell-based; conditions: fungicide at a rate just below that giving any control; visual assessment of % control;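 note: scored as inactive or active or highly active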
Method: as §4, §5, §6, §7, §8

[5] = test system: Zymoseptoria tritici with a reduced susceptibility to SDHI fungicides; experiment: as above; format: cell-based; conditions: fungicide at a rate just below that giving any control; visual assessment of % control;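 note: scored as inactive or active or highly active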
Method: as §4, §5, §6, §7, §8

[6] = test system: Zymoseptoria tritici on wheat; experiment: Greenhouse crop test in combination with commercial fungicide; format: in vivo; conditions: test compound at 20 ppm
Method: as §1, §2, §3

[7] = test compound rate not printed (same rate for both, the higher rate), compared to Amistar alone

## C/C(=N\NC(=O)c1cccc(F)c1)c1ccccn1 [I-4, (E)-3-fluoro-N′-(1-(pyridin-2-yl)ethylidene)benzohydrazide]
[1]; test compound at 15 ppm, compared to Amistar with Roux Compound 15 at 15 ppm
  control of Botrytis by Amistar in combination with test compound: much higher levels of control
[1]; [7]
  control of Botrytis by Amistar in combination with test compound: substantially higher than with Amistar alone
[1]; test compound at 15 ppm
  activity against Botrytis of Balaya in combination with test compound: significantly more active
[1]; Imtrex 0.005 L/ha, test compound at 30 ppm, compared to Imtrex alone or with Roux Compound 15 at 30 ppm
  control of Botrytis by Imtrex in combination with test compound: far superior control
[1]; test compound at 30 ppm
  control of Botrytis by Proline in combination with test compound: notably higher than with Proline alone
[2]
  % Inhibition of Apyrase: 24%
[3]
  activity in combination with azoxystrobin: significant activity
  activity in combination with desthio prothioconazole: significant activity
  activity in combination with fluxapyroxad: significant activity
[4]
  activity in combination with azoxystrobin: significant activity
  activity in combination with desthio prothioconazole: significant activity
  activity in combination with fluxapyroxad: significant activity
[5]
  activity in combination with azoxystrobin: significant activity
  activity in combination with desthio prothioconazole: significant activity
  activity in combination with fluxapyroxad: significant activity

## CCCC/C=N/NC(=O)c1ccccc1 [I-9, (E)-N′-pentylidenebenzohydrazide]
[2]
  % Inhibition of Apyrase: 19%
[4]
  activity in combination with azoxystrobin: significant activity
[5]
  activity in combination with desthio prothioconazole: significant activity

## C/C(=N\NC(=O)c1cccc(C(F)(F)F)c1)c1ccc2ccccc2c1 [I-210, (E)-N′-(1-(naphthalen-2-yl)ethylidene)-3-(trifluoromethyl)benzohydrazide]
[2]
  % Inhibition of Apyrase: 63%

## C/C(=N\NC(=O)c1cccc(C)n1)c1ccc2ccccc2c1 [I-211, (E)-6-methyl-N′-(1-(naphthalen-2-yl)ethylidene)picolinohydrazide]
[2]
  % Inhibition of Apyrase: 56%

## C/C(=N\NC(=O)c1ccc(C)s1)c1ccc2ccccc2c1 [I-212, (E)-5-methyl-N′-(1-(naphthalen-2-yl)ethylidene)thiophene-2-carbohydrazide]
[2]
  % Inhibition of Apyrase: 56%

## C/C(=N\NC(=O)c1ccccc1)c1ccc2ccccc2c1 [I-213, (E)-N′-(1-(naphthalen-2-yl)ethylidene)benzohydrazide]
[2]
  % Inhibition of Apyrase: 55%

## C/C(=N\NC(=O)c1cccc(C)c1)c1cnc2ccccc2c1 [I-215, (E)-3-methyl-N′-(1-(quinolin-3-yl)ethylidene)benzohydrazide]
[2]
  % Inhibition of Apyrase: 46%
[4]
  activity in combination with fluxapyroxad: significant activity

## C/C(=N\NC(=O)c1csc(C)c1)c1ccc2ccccc2c1 [I-216, (E)-5-methyl-N′-(1-(naphthalen-2-yl)ethylidene)thiophene-3-carbohydrazidee]
[2]
  % Inhibition of Apyrase: 44%

## C/C(=N\NC(=O)c1cccc(C)c1)c1ccc(C)c(C)c1 [I-217, (E)-N′-(1-(3,4-dimethylphenyl)ethylidene)-3-methylbenzohydrazide]
[2]
  % Inhibition of Apyrase: 44%

## CCc1cccc(C(=O)N/N=C(\C)c2ccc3ccccc3c2)c1 [I-218, (E)-3-ethyl-N′-(1-(naphthalen-2-yl)ethylidene)benzohydrazide]
[2]
  % Inhibition of Apyrase: 42%

## C/C(=N\NC(=O)c1ccnc(C)n1)c1ccc2ccccc2c1 [I-219, (E)-2-methyl-N′-(1-(naphthalen-2-yl)ethylidene)pyrimidine-4-carbohydrazide]
[2]
  % Inhibition of Apyrase: 40%

## C/C(=N\NC(=O)c1cccc(CO)c1)c1ccc2ccccc2c1 [I-220, (E)-3-(hydroxymethyl)-N′-(1-(naphthalen-2-yl)ethylidene)benzohydrazide]
[2]
  % Inhibition of Apyrase: 25%

## C/C(=N\NC(=O)c1cccc(S(=O)(=O)N(C)C)c1)c1ccc2ccccc2c1 [I-221, (E)-N,N-dimethyl-3-(2-(1-(naphthalen-2-yl)ethylidene)hydrazine-1-carbonyl)benzenesulfonamide]
[2]
  % Inhibition of Apyrase: 23%

## CNS(=O)(=O)c1cccc(C(=O)N/N=C(\C)c2ccc3ccccc3c2)c1 [I-222, (E)-N-methyl-3-(2-(1-(naphthalen-2-yl)ethylidene)hydrazine-1-carbonyl)benzenesulfonamide]
[2]
  % Inhibition of Apyrase: 12%

## C/C(=N\NC(=O)c1cc(C)ncn1)c1ccc2ccccc2c1 [I-223, (E)-6-methyl-N′-(1-(naphthalen-2-yl)ethylidene)pyrimidine-4-carbohydrazide]
[6]; Balaya 0.0015 L/ha, compared to Balaya alone or with Roux Compound 15 at 30 ppm
  control of Zymoseptoria tritici by Balaya in combination with test compound: notable superior results
[6]; Proline 0.0075 L/ha, compared to Proline alone and with Roux Compound 15
  control of Zymoseptoria tritici by Proline in combination with test compound: notable superior results
[2]
  % Inhibition of Apyrase: 10%
[3]
  activity in combination with desthio prothioconazole: significant activity
[4]
  activity in combination with fluxapyroxad: significant activity

## C/C(=N\NC(=O)c1cccc(C)c1)c1ccc2c(c1)CCC2 [I-224, (E)-N′-(1-(2,3-dihydro-1H-inden-5-yl)ethylidene)-3-methylbenzohydrazide]
[2]
  % Inhibition of Apyrase: 10%

## C/C(=N\NC(=O)c1nccc(C)n1)c1ccc2ccccc2c1 [I-225, (E)-4-methyl-N′-(1-(naphthalen-2-yl)ethylidene)pyrimidine-2-carbohydrazide]
[2]
  % Inhibition of Apyrase: 6%

## C/C(=N\NC(=O)c1cncc(C)c1)c1ccc2ccccc2c1 [I-226, (E)-5-methyl-N′-(1-(naphthalen-2-yl)ethylidene)nicotinohydrazide]
[2]
  % Inhibition of Apyrase: 1%

## C/C(=N\NC(=O)c1cccc(C)c1)c1ccc2ccccc2c1 [Roux compound 15, reference compound]
[1]; [7]
  control of Botrytis by Amistar in combination with test compound: substantially higher than with Amistar alone
[1]; test compound at 15 ppm
  activity against Botrytis of Balaya in combination with test compound: no more active against Botrytis than Balaya alone
[1]; test compound at 30 ppm
  control of Botrytis by Proline in combination with test compound: notably higher than with Proline alone
[2]
  % Inhibition of Apyrase: about 60%
[3]
  activity in combination with azoxystrobin: no activity
  activity in combination with desthio prothioconazole: no activity
  activity in combination with fluxapyroxad: no activity
[4]
  activity in combination with azoxystrobin: no activity
  activity in combination with desthio prothioconazole: no activity
  activity in combination with fluxapyroxad: no activity
[5]
  activity in combination with azoxystrobin: no activity
  activity in combination with desthio prothioconazole: no activity
  activity in combination with fluxapyroxad: no activity
